Assay results: the supplement of paper PMC10307832

Key:
Test in all cases: relative viability (nuclei count vs DMSO), 5 days (fraction); higher = more cells survive
Dabrafenib + Foretinib = compound: CC(C)(C)c1nc(-c2cccc(NS(=O)(=O)c3c(F)cccc3F)c2F)c(-c2ccnc(N)n2)s1 [Dabrafenib] + COc1cc2c(Oc3ccc(NC(=O)C4(C(=O)Nc5ccc(F)cc5)CC4)cc3F)ccnc2cc1OCCCN1CCOCC1 [Foretinib] (partner 0.25 µM)
Method in brief: (§1)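 For relative viability, nuclei counts in treated wells were divided by those in vehicle wells. Lung cancer cell lines had been pin-tool dosed in 1536-well plates the day after seeding and cultured for 5 days, then fixed and stained in one step (final 0.05% Triton X-100, 1% formaldehyde, 1 ug/ml Hoechst) and imaged at 4×. Doses were one drug alone or a fixed anchor-drug dose plus five library-drug doses (not always all listed) in √10 steps, and values are duplicate-plate medians.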

VX-702 + Trametinib = compound: NC(=O)c1ccc(N(C(N)=O)c2c(F)cccc2F)nc1-c1ccc(F)cc1F [VX-702] + CC(=O)Nc1cccc(-n2c(=O)n(C3CC3)c(=O)c3c(Nc4ccc(I)cc4F)n(C)c(=O)c(C)c32)c1 [Trametinib] (partner 0.02 µM)
Method in brief: as §1

Dabrafenib + Vorinostat = compound: CC(C)(C)c1nc(-c2cccc(NS(=O)(=O)c3c(F)cccc3F)c2F)c(-c2ccnc(N)n2)s1 [Dabrafenib] + O=C(CCCCCCC(=O)Nc1ccccc1)NO [Vorinostat] (partner 1 µM)
Method in brief: as §1

VX-702 + Navitoclax = compound: NC(=O)c1ccc(N(C(N)=O)c2c(F)cccc2F)nc1-c1ccc(F)cc1F [VX-702] + CC1(C)CCC(c2ccc(Cl)cc2)=C(CN2CCN(c3ccc(C(=O)NS(=O)(=O)c4ccc(N[C@H](CCN5CCOCC5)CSc5ccccc5)c(S(=O)(=O)C(F)(F)F)c4)cc3)CC2)C1 [Navitoclax] (partner 0.5 µM)
Method in brief: as §1

Cell Line	relative viability (Dabrafenib + Foretinib; first compound 0.003 µM)	relative viability (Dabrafenib + Foretinib; first compound 0.009487 µM)	relative viability (Dabrafenib + Foretinib; first compound 0.03 µM)	relative viability (Dabrafenib + Foretinib; first compound 0.09487 µM)	relative viability (Dabrafenib + Foretinib; first compound 0.3 µM)	relative viability (VX-702 + Trametinib; first compound 0.02 µM)	relative viability (VX-702 + Trametinib; first compound 0.2 µM)	relative viability (VX-702 + Trametinib; first compound 0.6325 µM)	relative viability (VX-702 + Trametinib; first compound 2 µM)	relative viability (Dabrafenib + Vorinostat; first compound 0.003 µM)	relative viability (Dabrafenib + Vorinostat; first compound 0.009487 µM)	relative viability (Dabrafenib + Vorinostat; first compound 0.03 µM)	relative viability (Dabrafenib + Vorinostat; first compound 0.09487 µM)	relative viability (Dabrafenib + Vorinostat; first compound 0.3 µM)	relative viability (VX-702 + Navitoclax; first compound 0.02 µM)	relative viability (VX-702 + Navitoclax; first compound 0.2 µM)	relative viability (VX-702 + Navitoclax; first compound 0.6325 µM)	relative viability (VX-702 + Navitoclax; first compound 2 µM)
UMC-11	1.13	1.12	1.06	0.984	1.13	0.682	0.544	0.562	0.846	0.379	0.362	0.409	0.473	0.454	0.274	0.293	0.303	0.359
NCI-H1437	1.26	1.27	1.25	1.23	1.26	0.519	0.447	0.464	0.497	0.839	0.813	0.907	0.802	0.872	1.07	1.08	1.23	1.29
EKVX	0.457	0.603	0.793	0.886	0.987	0.241	0.291	0.307	0.281		0.862	0.716	0.608	0.806	0.96	0.932	0.882	0.986
COR-L 105	0.971	1.32	1.18	1.11	1.41	0.472	0.437	0.395	0.42	0.779	0.975	0.806	0.888	0.911	0.82	0.61	0.851	1.08
NCI-H650		0.959	0.793	0.734	0.585	0.92	0.978	1.1	1.08		0.346	0.408	0.241	0.218				
NCI-H1648						0.395	0.579	0.593	0.435	0.459	0.429		0.499	0.421				
NCI-H2009	1.21	1.18	1.24	0.995	0.911	0.284	0.28	0.255	0.272	0.651	0.64	0.673	0.414	0.574	1.18	1.2	1.25	1.47
LXF-289	1.01	1.03	0.993	0.931	1.01	0.718	0.648	0.691	0.703	0.73	0.779	0.759	0.674	0.789	1	0.957	0.935	0.961
NCI-H647	1.35	1.16	1.01	1.05	1.38	0.555	0.571	0.497	0.678	0.814	0.529	0.445	0.401	0.524	1.1	1.02	1.02	1.23
NCI-H1666	0.907	0.944	0.951	0.969	1.1	0.89	0.819	0.883	0.739	1.05	0.937	1.19	0.972	1.15	0.883	0.884	0.843	1.02
NCI-H1734		0.963	0.73	0.811	0.965	0.734	0.683	0.544	0.68		0.85	0.627	0.708	0.759	0.814	0.695	0.685	0.743
BEN		0.699		0.569	0.713	1.1	0.907	1.03	1.07		0.499		0.517	0.612	0.0513	0.104	0.0606	0.0662
PC-3 [JPC-3]	1	1.09	1.1	0.997	1.01	0.644	0.76	0.768	0.855		0.981	0.713	0.771	1.12	0.756	0.846	0.844	0.853
NCI-H2228		0.95	0.797	0.749	0.97	0.485	0.518	0.551	0.602	0.501	0.53	0.656	0.381	0.877	1.29	0.973	0.886	0.952
HOP-62	1.12	1.1	1.16	0.969	1.12	0.419	0.397	0.469	0.45	0.199	0.806	0.555	0.341	0.5	1.28	0.848	1.03	1.15
H3255	0.688	0.897	1.09	0.667	0.839	0.488		0.581	0.662	0.762	0.765	0.755	0.913	0.78	0.508	0.446	0.501	0.557
201T	1.11	1.2	1.12	1.14	1.26	0.733	0.756	0.744	0.774	0.978	1.07	0.813	0.947	0.98	1.17	1.22	1.23	1.24
HCC-44						1.11	1.06	1.05	1.1	1.07	1.06	1.28	1.05	1.08	0.93	0.99	0.881	1.09
ABC-1	1.03	1.09	0.866	1.02	1.26						1.37	1.19	1.25	1.04				
HARA	0.907	0.906		0.78	0.972	0.818		0.776	0.63	0.553	0.644		0.481	0.567	1.08	1.14	1.05	1.09
